This is an account of results in patent publication US20130202681A1 (priority 2012, published 2013).

Where two headings read alike, the source gives them in different places.

For series [1] the following is noted: liver, water control = 0%.
For series [2] the following is noted: mouse, in vivo; cited from earlier work.
For series [3] the following is noted: in vivo; cited from earlier work.
In series [4] the test system is Mycobacterium tuberculosis. The conditions noted are these: 10 millimolar.

As to `N[C@@H](CCC(=O)N[C@@H](CS)C(=O)NCC(=O)O)C(=O)O` [Plain glutathione, glutathione], the toxin removal in series [1] (intravenous) stood at 70%; in series [1] (oral), 10%. The “decrease of incidence or size of hepatic nodules or tumors” value in series [2] is listed as “no benefit”. Moreover, the “absorption after oral ingestion” value in series [3] is reported as “not absorbed”.

Turning to `CC(=O)N[C@@H](CS)C(=O)O` [NAC, N-acetyl cysteine], in series [4], the “CFU/ml reduced to” value is recorded as 8,000 CFU/ml.
